“And” between values parts separate entries of the source, which are not always exact repeats. Equal values may be shown once. Read-outs that look alike come from different tables or passages of the source.
How the values were obtained:
[1] = Pharmacokinetic studies in rats (plasma and brain); format: in vivo
Procedure: Because binding to plasma protein was approximately 90%, we predicted that the free concentration at each time point was 10 times lower than the measured plasma concentration.
Pharmacokinetic studies in rats. Pharmacokinetics studies were contracted to the Drug Metabolism and Pharmacokinetics Core at Scripps Research. CP612 was dissolved at in 10% Tween-80/90% water and administered at 40 mg/kg/5 mL. Six rats were injected i.v. and 6 were injected i.p. Three rats were used to collect a full plasma time course from 5 minutes to 24 hours after dose. Then, brains were collected from these rats at 24 hours and from 3 additional rats at 2 hours after administration of compound. One rat receiving i.p. administration of CP612 was excluded as it had low/nondetectable levels indicating missed i.p. injection in that rat. Plasma samples were diluted 10-fold in blank plasma. Each brain was disrupted in potassium phosphate buffer (pH 7.4; 9 μL per 1mg tissue) on ice using brief sonication pulses. CP612 was detected with an API Triple Quad 5500 LC-MS/MS (SCIEX) using an MRM(+) method: CP612 (463/282, m/z) with carbamazepine (238/195.1, m/z) as an internal standard.

in vitro = conditions: human, microsomes; for half-life at 8.5 μM: both
Procedure: Microsomal clearance. To determine if CP612 was a likely substrate for first-pass hepatic metabolism, we measured the stability of CP612 in the presence of human liver microsomes (BioIVT) pooled from over 100 male and female individuals. […] Test compounds were diluted to 10 μM in 0.1M PBS, and then 51 μL were dispensed in quadruplicate into wells of a 96-well plate, which was shaken at 600 rpm at 37°C. Reactions were initiated by adding 1.5 μL of microsomes (20 mg/mL) to the wells and 3 minutes later adding 7.5 μL of 8 mM NADPH (1 mM final concentration). Samples incubated without NADPH were used as negative controls.

[2] = rat, plasma, ip, 40 mg/kg, i.p. 40 mg/kg, individual rat
[3] = rat, plasma, ip, 40 mg/kg, i.p. 40 mg/kg, mean all rats
[4] = rat, plasma, iv, 40 mg/kg, i.v. 40 mg/kg, individual rat
[5] = rat, plasma, iv, 40 mg/kg, i.v. 40 mg/kg, mean all rats

## N[C@H](CNC(=O)C1(c2ccc(Cl)cc2)CCCC1)c1ccc(C(=O)Nc2ccncc2)cc1 [CP612]
[1]; rat, i.v. 40 mg/kg, 24h, individual rat, 40 mg/kg
  Plasma concentration: 0.1270 µM and 0.2873 µM and 0.1609 µM
[1]; rat, i.v. 40 mg/kg, 24h, individual rat, 40 mg/kg, read-out: Brain concentration
  concentration at 2 h: 1.4990 µM and 0.8100 µM and 2.0757 µM
[1]; rat, i.v. 40 mg/kg, individual rat, 40 mg/kg
  Plasma 2h/24h: 88.9456 and 42.9323 and 75.0336
[1]; rat, i.v. 40 mg/kg, mean all rats
  Plasma 2h/24h: 68.9705
[1]; rat, i.v. 40 mg/kg, mean of RM Plasma + Brain 24h rats
  Plasma 2h/24h: 68.9705
[1]; rat, ip, rats, 40 mg/kg i.p., plasma
  Cmax: 29.3 ± 1 µM
[1]; rat, iv, rats, 40 mg/kg i.v., plasma
  Cmax: 104 ± 3.1 µM
[1]; [2]
  concentration at 15 min: 22 µM
  concentration at 30 min: 30.2 µM
  concentration at 1 h: 28.3 µM
  concentration at 4 h: 5.16 µM
  concentration at 6 h: 1.91 µM
  concentration at 8 h: 2.29 µM
[1]; [3]
  concentration at 15 min: 21.9 µM
  concentration at 30 min: 25.4 µM
  concentration at 1 h: 28.3 µM
  concentration at 4 h: 5.82 µM
  concentration at 6 h: 1.89 µM
  concentration at 8 h: 2.13 µM
[1]; rat, plasma, ip, 40 mg/kg, rat, i.p. 40 mg/kg, 2h, individual rat, read-out: Plasma concentration
  concentration at 2 h: 14.4 µM
[1]; rat, plasma, ip, 40 mg/kg, rat, i.p. 40 mg/kg, 2h, mean all rats, read-out: Plasma concentration
  concentration at 2 h: 15 µM
[1]; rat, plasma, ip, 40 mg/kg, rat, i.p. 40 mg/kg, 2h, mean of Plasma 2h, Brain 2h rats, read-out: Plasma concentration
  concentration at 2 h: 15.1 µM
[1]; rat, plasma, ip, 40 mg/kg, rat, i.p. 40 mg/kg, 2h, mean of RM Plasma + Brain 24h rats, read-out: Plasma concentration
  concentration at 2 h: 14.7 µM
[1]; rat, plasma, ip, 40 mg/kg, rat, i.p. 40 mg/kg, 24h, individual rat, read-out: Plasma concentration
  concentration at 24 h: 0.38 µM
[1]; rat, plasma, ip, 40 mg/kg, rat, i.p. 40 mg/kg, 24h, mean all rats, read-out: Plasma concentration
  concentration at 24 h: 0.498 µM
[1]; rat, plasma, ip, 40 mg/kg, rat, i.p. 40 mg/kg, 24h, mean of RM Plasma + Brain 24h rats, read-out: Plasma concentration
  concentration at 24 h: 0.498 µM
[1]; rat, plasma, ip, rats, 40 mg/kg i.p.
  half-life: 6.8 ± 0.7 h
[1]; [4]
  concentration at 5 min: 80.3 µM
  concentration at 15 min: 57 µM
  concentration at 1 h: 26.4 µM
  concentration at 4 h: 3.97 µM
  concentration at 6 h: 1.68 µM
  concentration at 8 h: 1.42 µM
[1]; [5]
  concentration at 5 min: 80.3 µM
  concentration at 15 min: 52.6 µM
  concentration at 30 min: 28.5 µM
  concentration at 1 h: 24.8 µM
  concentration at 4 h: 4.11 µM
  concentration at 6 h: 1.55 µM
  concentration at 8 h: 1.41 µM
[1]; rat, plasma, iv, 40 mg/kg, rat, i.v. 40 mg/kg, 2h, individual rat, read-out: Plasma concentration
  concentration at 2 h: 11.3 µM
[1]; rat, plasma, iv, 40 mg/kg, rat, i.v. 40 mg/kg, 2h, mean all rats, read-out: Plasma concentration
  concentration at 2 h: 13.9 µM
[1]; rat, plasma, iv, 40 mg/kg, rat, i.v. 40 mg/kg, 2h, mean of Plasma 2h, Brain 2h rats, read-out: Plasma concentration
  concentration at 2 h: 16 µM
[1]; rat, plasma, iv, 40 mg/kg, rat, i.v. 40 mg/kg, 2h, mean of RM Plasma + Brain 24h rats, read-out: Plasma concentration
  concentration at 2 h: 11.9 µM
[1]; rat, plasma, iv, 40 mg/kg, rat, i.v. 40 mg/kg, 24h, mean all rats, read-out: Plasma concentration
  concentration at 24 h: 0.192 µM
[1]; rat, plasma, iv, 40 mg/kg, rat, i.v. 40 mg/kg, 24h, mean of RM Plasma + Brain 24h rats, read-out: Plasma concentration
  concentration at 24 h: 0.192 µM
[1]; rat, plasma, iv, rats, 40 mg/kg i.v.
  half-life: 4 ± 0.6 h
[1]; rats, i.p. or i.v. injection
  Brain penetration: brain penetrant
In vitro; Microsomal clearance t½ (min)
  half-life at 8.5 μM: 10.5 ± 1.31 h
In vitro; t1/2 (half life)
  half-life at 8.5 μM: 10.8 h
In vitro; t1/2 (half life), Mean
  half-life at 8.5 μM: 10.5 h
In vitro
  CLint (clearance), Mean: 2.23
  Microsomal clearance (in words): low
  Microsomal clearance Cl: 2.23 ± 0.29 µL/min
